Source: patent US20240018161A1, “MODULATORS OF CYSTIC FIBROSIS TRANSMEMBRANE CONDUCTANCE REGULATOR” (VERTEX PHARMACEUTICALS INCORPORATED, priority 2020, published 2024)
Like-named read-outs stand apart in the source and are kept apart here.

Target: CFTR-mediated chloride transport in human intestinal epithelial enteroid cells (Homo sapiens, UniProt P13569)
Assay: Membrane potential dye, Enteroid Assay A
Assay type: cell-based
Settings: for EC50: read-out: Ent. A EC50
Method in brief: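 Membrane potential dye (20 μM methyl oxonol, with 30 μM CaCCinh-A01 and 30 μM Chicago Sky Blue) loaded 25 min at room temperature into ROCK-inhibitor-seeded human enteroid cells. Chloride-free stimulation buffer triggered transport, followed by 15 min fluorescence. % Activity relative to 3 μM/3 μM/300 nM triple-combination control.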

[1] = enteroid cells incubated with test compound 18-24 hours, acute 10 μM forskolin and 300 nM N-[2,4-bis(1,1-dimethylethyl)-5-hydroxyphenyl]-1,4-dihydro-4-oxoquinoline-3-carboxamide
[2] = percentage of chloride transport of triple combination control (3 μM N-[(6-amino-2-pyridyl)sulfonyl]-6-(3-fluoro-5-isobutoxy-phenyl)-2-[(4S)-2,2,4-trimethylpyrrolidin-1-yl]pyridine-3-carboxamide based)

CFTR-mediated chloride transport in human intestinal epithelial enteroid cells, sequence (P13569 with tags, fused parts or gaps DEL508-508): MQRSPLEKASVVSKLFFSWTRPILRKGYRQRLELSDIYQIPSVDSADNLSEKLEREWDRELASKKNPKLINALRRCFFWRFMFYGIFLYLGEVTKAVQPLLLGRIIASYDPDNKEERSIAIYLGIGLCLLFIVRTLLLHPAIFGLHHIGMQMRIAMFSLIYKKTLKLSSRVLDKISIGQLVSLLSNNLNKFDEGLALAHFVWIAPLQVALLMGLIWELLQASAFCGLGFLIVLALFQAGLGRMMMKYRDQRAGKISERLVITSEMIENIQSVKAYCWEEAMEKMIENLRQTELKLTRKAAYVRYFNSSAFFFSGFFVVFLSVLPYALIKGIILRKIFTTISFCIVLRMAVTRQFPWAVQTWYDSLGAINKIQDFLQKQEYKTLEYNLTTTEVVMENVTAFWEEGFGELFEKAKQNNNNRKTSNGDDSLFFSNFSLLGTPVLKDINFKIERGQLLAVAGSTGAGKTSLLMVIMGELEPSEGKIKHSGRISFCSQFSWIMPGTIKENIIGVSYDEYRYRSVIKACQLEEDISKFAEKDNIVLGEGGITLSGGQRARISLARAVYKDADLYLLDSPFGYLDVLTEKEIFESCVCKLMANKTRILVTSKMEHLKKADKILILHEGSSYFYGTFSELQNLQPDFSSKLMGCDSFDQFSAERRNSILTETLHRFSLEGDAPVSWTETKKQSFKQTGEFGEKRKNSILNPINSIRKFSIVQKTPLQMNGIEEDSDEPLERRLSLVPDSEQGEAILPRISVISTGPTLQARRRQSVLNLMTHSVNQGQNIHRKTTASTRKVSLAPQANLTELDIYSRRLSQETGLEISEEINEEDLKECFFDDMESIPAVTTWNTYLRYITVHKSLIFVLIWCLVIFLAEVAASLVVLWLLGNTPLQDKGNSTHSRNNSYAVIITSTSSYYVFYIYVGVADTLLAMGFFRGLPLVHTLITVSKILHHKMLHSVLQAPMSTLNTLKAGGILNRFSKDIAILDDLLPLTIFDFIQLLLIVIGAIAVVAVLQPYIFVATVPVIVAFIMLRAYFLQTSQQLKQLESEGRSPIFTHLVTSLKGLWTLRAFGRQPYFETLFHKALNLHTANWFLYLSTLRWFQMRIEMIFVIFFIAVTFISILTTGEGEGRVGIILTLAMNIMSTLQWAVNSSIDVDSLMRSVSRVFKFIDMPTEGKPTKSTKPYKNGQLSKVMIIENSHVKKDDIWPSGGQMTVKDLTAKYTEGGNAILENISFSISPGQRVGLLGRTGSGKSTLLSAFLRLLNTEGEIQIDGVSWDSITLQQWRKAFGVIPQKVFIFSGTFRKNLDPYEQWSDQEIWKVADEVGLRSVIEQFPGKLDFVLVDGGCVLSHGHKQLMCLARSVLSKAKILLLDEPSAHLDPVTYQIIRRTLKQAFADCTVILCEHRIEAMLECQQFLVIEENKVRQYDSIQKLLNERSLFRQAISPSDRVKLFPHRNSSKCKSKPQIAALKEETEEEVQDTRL

Row | EC50 [1] | Ent. A Max Activity (%) (Enteroid Assay A) | EC50 (Enteroid Assay A) | Structure (SMILES) | Ent. A Max Activity (%) [2]
1 | < 1 µM |  |  | Cc1cccc(C)c1-c1cc2nc(n1)NS(=O)(=O)c1cccc(c1)C(=O)N1CCN(CC3CCCCC3)CC1CO2 (centres unmarked) [Compound 309] | ++ (++ is 30-60%)
2 | < 1 µM |  |  | Cc1cccc(C)c1-c1cc2nc(n1)NS(=O)(=O)c1cccc(c1)C(=O)N1CCN(CCC(C)(C)C)CC1CO2 (centres unmarked) [Compound 310] | ++ (++ is 30-60%)
3 | < 1 µM |  |  | Cc1cccc(C)c1-c1cc2nc(n1)NS(=O)(=O)c1cccc(c1)C(=O)N1CCN(CCc3ccccc3)CC1CO2 (centres unmarked) [Compound 311] | ++ (++ is 30-60%)
4 | 1 to 3 µM |  |  | Cc1cccc(C)c1-c1cc2nc(n1)NS(=O)(=O)c1cccc(c1)C(=O)N1CCN(CC3CCOCC3)CC1CO2 (centres unmarked) [Compound 312] | ++ (++ is 30-60%)
5 | < 1 µM |  |  | Cc1cccc(C)c1-c1cc2nc(n1)NS(=O)(=O)c1cccc(c1)C(=O)N1CCN(CCCC(C)(C)C)CC1CO2 (centres unmarked) [Compound 313] | +++ (+++ is >60%)
6 | < 1 µM |  |  | Cc1cccc(C)c1-c1cc2nc(n1)NS(=O)(=O)c1cccc(c1)C(=O)N1CCN(CCC3(C(F)(F)F)CC3)C(CO2)C1 (centres unmarked) [Compound 314] | +++ (+++ is >60%)
7 | < 1 µM |  |  | Cc1cccc(C)c1-c1cc2nc(n1)NS(=O)(=O)c1cccc(c1)C(=O)N1CCN(C(=O)OC(C)(C)C)C[C@@H]1CO2 [Compound 315] | ++ (++ is 30-60%)
8 |  |  |  | Cc1cccc(C)c1-c1cc2nc(n1)NS(=O)(=O)c1cccc(c1)C(=O)N1CCN(C)C(CO2)C1 (centres unmarked) [Compound 316] | + (+ is <300%)
9 | < 1 µM |  |  | Cc1cccc(C)c1-c1cc2nc(n1)NS(=O)(=O)c1cccc(c1)C(=O)N1CCC(c3ccccc3)C(C1)O2 (centres unmarked) [Compound 317] | +++ (+++ is >60%)
10 |  |  |  | Cc1cccc(C)c1-c1cc2nc(n1)NS(=O)(=O)c1cccc(c1)C(=O)N1Cc3ccccc3[C@@H](C1)O2 [Compound 318] | + (+ is <300%)
11 | 1 to 3 µM |  |  | Cc1cccc(C)c1-c1cc2nc(n1)NS(=O)(=O)c1cccc(c1)C(=O)N1CC(NC(=O)OC(C)(C)C)CC(C1)O2 (centres unmarked) [Compound 320] | ++ (++ is 30-60%)
12 | < 1 µM |  |  | Cc1cccc(C)c1-c1cc2nc(n1)NS(=O)(=O)c1cccc(c1)C(=O)N1CC(CC(C(=O)NCCC(C)(C)C)C1)O2 (centres unmarked) [Compound 321] | ++ (++ is 30-60%)
13 | < 1 µM |  |  | Cc1cccc(C)c1-c1cc2nc(n1)NS(=O)(=O)c1cccc(c1)C(=O)N1CCN(C(=O)OC(C)(C)C)C(CO2)C1 (centres unmarked) [Compound 322] | ++ (++ is 30-60%)
14 | 3 to 30 µM |  |  | Cc1cccc(C)c1-c1cc2nc(n1)NS(=O)(=O)c1cccc(c1)C(=O)N1CC(O2)C(N2CCOCC2)C1 (centres unmarked) [Compound 323] | ++ (++ is 30-60%)
15 | 3 to 30 µM |  |  | Cc1cccc(C)c1-c1cc2nc(n1)NS(=O)(=O)c1cccc(c1)C(=O)N1CCN(C)CC1CO2 (centres unmarked) [Compound 324] | ++ (++ is 30-60%)
16 | < 1 µM |  |  | Cc1cccc(C)c1-c1cc2nc(n1)NS(=O)(=O)c1cccc(c1)C(=O)N1Cc3ccccc3C(C1)O2 (centres unmarked) [Compound 325] | +++ (+++ is >60%)
17 | 3 to 30 µM |  |  | Cc1cccc(C)c1-c1cc2nc(n1)NS(=O)(=O)c1cccc(c1)C(=O)N1CCCC(C1)O2 (centres unmarked) [Compound 326] | + (+ is <300%)
18 | 1 to 3 µM |  |  | Cc1cccc(C)c1-c1cc2nc(n1)NS(=O)(=O)c1cccc(c1)NC(=O)[C@@H]1CNCCN1c1cccc(c1)O2 [Compound 334] | +++ (+++ is >60%)
19 |  |  |  | Cc1cccc(C)c1-c1cc2nc(n1)NS(=O)(=O)c1cccc(c1)C(=O)N1CCC[C@@H](C1)O2 [Compound 335] | + (+ is <300%)
20 |  |  |  | Cc1cccc(C)c1-c1cc2nc(n1)NS(=O)(=O)c1cccc(c1)C(=O)N1CCC[C@H](C1)O2 [Compound 336] | + (+ is <300%)
21 | < 1 µM |  |  | CC(C)CCc1ccccc1-c1cc2nc(n1)NS(=O)(=O)c1cccc(c1)C(=O)N1Cc3ccccc3C(C1)O2 (centres unmarked) [Compound 337] | ++ (++ is 30-60%)
22 |  |  |  | CC(C)Oc1cccc(-c2cc3nc(n2)NS(=O)(=O)c2cccc(c2)C(=O)N2Cc4ccccc4C(C2)O3)c1 (centres unmarked) [Compound 338] | + (+ is <300%)
23 | 3 to 30 µM |  |  | Cc1cccc(C)c1-c1cc2nc(n1)NS(=O)(=O)c1cc(n(C)n1)C(=O)N1Cc3ccccc3[C@H](C1)O2 [Compound 340] | + (+ is <300%)
24 | 3 to 30 µM |  |  | Cc1cccc(C)c1-c1cc2nc(n1)NS(=O)(=O)c1cc(n(C)n1)C(=O)N1Cc3ccccc3[C@H](C1)O2 [Compound 341] | ++ (++ is 30-60%)
25 | 1 to 3 µM |  |  | Cc1cccc(C)c1-c1cc2nc(n1)NS(=O)(=O)c1cc(ccn1)C(=O)N1Cc3ccccc3C(C1)O2 (centres unmarked) [Compound 343] | ++ (++ is 30-60%)

Row | EC50 [1] | Ent. A Max Activity (%) (Enteroid Assay A) | EC50 (Enteroid Assay A) | Structure (SMILES) | Ent. A Max Activity (%) [2]
26 | < 1 µM |  |  | Cc1cccc(C)c1-c1cc2nc(n1)NS(=O)(=O)c1cccc(c1)CN1CC(COCC(C)(C)C)CC(C1)O2 (centres unmarked) [Compound 344] | ++ (++ is 30-60%)
27 |  |  |  | Cc1cccc(C)c1-c1cc2nc(n1)NS(=O)(=O)c1cccc(c1)CCC(=O)N1Cc3ccccc3C(C1)O2 (centres unmarked) [Compound 345] | + (+ is <300%)
28 |  |  |  | Cc1cccc(C)c1-c1cc2nc(n1)NS(=O)(=O)c1cnn(c1)CCC(=O)N1Cc3ccccc3C(C1)O2 (centres unmarked) [Compound 346] | + (+ is <300%)
29 |  |  |  | Cc1cccc(C)c1-c1cc2nc(n1)NS(=O)(=O)c1cnn(c1)CC(=O)N1Cc3ccccc3C(C1)O2 (centres unmarked) [Compound 347] | + (+ is <300%)
30 | 1 to 3 µM |  |  | Cc1cccc(C)c1-c1cc2nc(n1)NS(=O)(=O)c1cc(n(C)c1)CC(=O)N1Cc3ccccc3C(C1)O2 (centres unmarked) [Compound 348] | ++ (++ is 30-60%)
31 |  |  |  | Cc1cccc(C)c1-c1cc2nc(n1)NS(=O)(=O)c1cccc(c1)CCC(=O)N1CCC(CC1)O2 [Compound 352] | + (+ is <300%)
32 |  |  |  | Cc1cccc(C)c1-c1cc2nc(n1)NS(=O)(=O)c1cccc(c1)CCC(=O)N1CCCC(C1)O2 (centres unmarked) [Compound 353] | + (+ is <300%)
33 |  |  |  | Cc1cccc(C)c1-c1cc2nc(n1)NS(=O)(=O)c1cnn(c1)CC(=O)N1CCCC(C1)O2 (centres unmarked) [Compound 354] | + (+ is <300%)
34 |  | ++ (++ is 30-60%) | 3 to 30 µM | Cc1cccc(C)c1-c1cc2nc(n1)NS(=O)(=O)c1cccc(c1)C(=O)N1CCC(CCCO2)C1 (centres unmarked) [Compound 355] | 
35 |  | ++ (++ is 30-60%) | 3 to 30 µM | Cc1cccc(C)c1-c1cc2nc(n1)NS(=O)(=O)c1cccc(c1)C(=O)N1CC(CCCO2)CC1(C)C (centres unmarked) [Compound 356] | 
36 |  | ++ (++ is 30-60%) | < 1 µM | Cc1cccc(C)c1-c1cc2nc(n1)NS(=O)(=O)c1cccc(c1)C(=O)N1CCCN(CCCC3(C(F)(F)F)CC3)CC(C1)O2 (centres unmarked) [Compound 357] | 
37 |  | ++ (++ is 30-60%) | < 1 µM | Cc1cccc(C)c1-c1cc2nc(n1)NS(=O)(=O)c1cccc(c1)C(=O)N1CCCN(CCC3(C(F)(F)F)CC3)CC(C1)O2 (centres unmarked) [Compound 358] | 
38 |  | ++ (++ is 30-60%) | 1 to 3 µM | Cc1cccc(C)c1-c1cc2nc(n1)NS(=O)(=O)c1cccc(c1)C(=O)N1CCCN(C(=O)OC(C)(C)C)CC(C1)O2 (centres unmarked) [Compound 359] | 
39 |  |  |  | Cc1cccc(C)c1-c1cc2nc(n1)NS(=O)(=O)c1cncc(c1)C(=O)N1Cc3ccccc3[C@@H](C1)O2 [Compound 360] | + (+ is <300%)
40 |  |  |  | Cc1cccc(C)c1-c1cc2nc(n1)NS(=O)(=O)c1cncc(c1)C(=O)N1Cc3ccccc3[C@H](C1)O2 [Compound 361] | + (+ is <300%)
41 |  | ++ (++ is 30-60%) | < 1 µM | Cc1cccc(C)c1-c1cc2nc(n1)NS(=O)(=O)c1cccc(c1)C(=O)N1CC(CC(C)(C)C1)O2 (centres unmarked) [Compound 362] | 
42 | 3 to 30 µM |  |  | Cc1cccc(C)c1-c1cc2nc(n1)NS(=O)(=O)c1cccc(c1)C(=O)N1C[C@H]3C[C@@H]1[C@@H](C3)O2 [Compound 363] | +++ (+++ is >60%)
43 |  |  |  | Cc1cccc(C)c1-c1cc2nc(n1)NS(=O)(=O)c1cccc(c1)C(=O)N1C[C@H]3C[C@@H]1[C@@H](C3)O2 [Compound 364] | ++ (++ is 30-60%)
44 | 3 to 30 µM |  |  | Cc1cccc(C)c1-c1cc2nc(n1)NS(=O)(=O)c1cccc(c1)C(=O)N1CC3CC(O2)C1C3 (centres unmarked) [Compound 365] | ++ (++ is 30-60%)
45 | 3 to 30 µM |  |  | Cc1cccc(C)c1-c1cc2nc(n1)NS(=O)(=O)c1cccc(c1)C(=O)N1CCOC[C@@H]1CO2 [Compound 366] | ++ (++ is 30-60%)
46 | 3 to 30 µM |  |  | Cc1cccc(C)c1-c1cc2nc(n1)NS(=O)(=O)c1cccc(c1)C(=O)N1CCC[C@@H]1CO2 [Compound 367] | +++ (+++ is >60%)
47 | 1 to 3 µM |  |  | Cc1cccc(C)c1-c1cc2nc(n1)NS(=O)(=O)c1cccc(c1)C(=O)N1CC(C)(C)CC1CO2 (centres unmarked) [Compound 368] | ++ (++ is 30-60%)
48 |  |  |  | Cc1cccc(C)c1-c1cc2nc(n1)NS(=O)(=O)c1cccc(c1)C(=O)N1CCCCC(C1)O2 (centres unmarked) [Compound 369] | + (+ is <300%)
49 | < 1 µM |  |  | Cc1cccc(C)c1-c1cc2nc(n1)NS(=O)(=O)c1cccc(c1)C(=O)N1CCC3(CC3)C(C1)O2 (centres unmarked) [Compound 370] | +++ (+++ is >60%)
